Measured values from ChEMBL document CHEMBL1201862, “PubChem BioAssay data set” (2004).
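Grown in 96-well plates, cells were treated for 48 hours with each compound at five concentrations. Insufficient inhibition: endpoint recorded as highest concentration tested. At the GI50, growth is halved.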 Activity calls are given as the source filed them. Rule as the data show it: active = GI50 up to about 1.1 µM and inactive = higher.

Legend:
Assay in all cases: NCI anticancer screen, dose series, 48 h
786-0 = test system: 786-0
ACHN = test system: ACHN
BT-549 = test system: BT-549
DU-145 = test system: DU-145
HOP-62 = test system: HOP-62
HOP-92 = test system: HOP-92
Hs-578T = test system: Hs-578T
LOX IMVI = test system: LOX IMVI
MDA-MB-231 = test system: MDA-MB-231
MDA-MB-435 = test system: MDA-MB-435
MDA-N = test system: MDA-N
NCI-H226 = test system: NCI-H226
NCI-H522 = test system: NCI-H522
OVCAR-8 = test system: OVCAR-8
SK-MEL-28 = test system: SK-MEL-28
SK-MEL-5 = test system: SK-MEL-5
SR = test system: SR
SW-620 = test system: SW-620
TK-10 = test system: TK-10
M19-MEL = test system: M19-MEL

Row | Compound | GI50 (786-0) | GI50 (ACHN) | GI50 (BT-549) | GI50 (DU-145) | GI50 (HOP-62) | GI50 (HOP-92) | GI50 (Hs-578T) | GI50 (LOX IMVI) | GI50 (MDA-MB-231) | GI50 (MDA-MB-435) | GI50 (MDA-N) | GI50 (NCI-H226) | GI50 (NCI-H522) | GI50 (OVCAR-8) | GI50 (SK-MEL-28) | GI50 (SK-MEL-5) | GI50 (SR) | GI50 (SW-620) | GI50 (TK-10) | GI50 (M19-MEL)
1 | O=C(O)CCC1(C(=O)O)CCC(=O)c2ccccc21 (centres undefined) | > 100 µM (inactive) | > 100 µM (inactive) | > 100 µM (inactive) | > 100 µM (inactive) | > 100 µM (inactive) | > 100 µM (inactive) | > 100 µM (inactive) | > 100 µM (inactive) | > 100 µM (inactive) | > 100 µM (inactive) | > 100 µM (inactive) | > 100 µM (inactive) | > 100 µM (inactive) | > 100 µM (inactive) | > 100 µM (inactive) | > 100 µM (inactive) | > 100 µM (inactive) | > 100 µM (inactive) | > 100 µM (inactive) | 
2 | O=C(N/N=C1/C(=O)N(c2ccc(Cl)cc2Cl)C(=O)C(=O)C1c1nc2ccccc2o1)c1ccccc1O (centres undefined) | 51.6 µM (inactive) | 37.5 µM (inactive) |  |  | 28.7 µM (inactive) | 30.5 µM (inactive) |  |  |  |  |  | > 100 µM (inactive) | 30.8 µM (inactive) | 60.4 µM (inactive) | 29.6 µM (inactive) | 19 µM (inactive) | 47.2 µM (inactive) | 47.9 µM (inactive) | 38.9 µM (inactive) | 38.3 µM (inactive)
3 | C=C(Br)COc1ccc2c(C)cc(=O)oc2c1 | > 100 µM (inactive) | 60.5 µM (inactive) | > 100 µM (inactive) | > 100 µM (inactive) | 69.8 µM (inactive) | 12.5 µM (inactive) | 90.6 µM (inactive) | > 100 µM (inactive) | 0.951 µM (active) | 56.1 µM (inactive) | > 100 µM (inactive) | > 100 µM (inactive) | 42.6 µM (inactive) | 47.9 µM (inactive) | > 100 µM (inactive) | 14.6 µM (inactive) | 44.2 µM (inactive) | > 100 µM (inactive) | 45.9 µM (inactive) | 
4 | COC(=O)[C@H]1CC(=O)C=C2CCCC21 (some centres undefined) | > 100 µM (inactive) |  |  |  | > 100 µM (inactive) | > 100 µM (inactive) |  | > 100 µM (inactive) |  |  |  |  | > 100 µM (inactive) | > 100 µM (inactive) | > 100 µM (inactive) | > 100 µM (inactive) |  | > 100 µM (inactive) | > 100 µM (inactive) | > 100 µM (inactive)
5 | O=C(N/C(=C\c1ccc(Br)cc1)c1nc2ccccc2s1)c1ccccc1 | > 100 µM (inactive) | 76.9 µM (inactive) |  |  |  | 38.2 µM (inactive) |  | 65.2 µM (inactive) |  |  |  | > 100 µM (inactive) | 32 µM (inactive) | 89.9 µM (inactive) | > 100 µM (inactive) | 36 µM (inactive) |  | > 100 µM (inactive) | > 100 µM (inactive) | 70.3 µM (inactive)
6 | O=c1/c(=C/c2ccc3c(c2)OCO3)sc2nnc(Cc3ccccc3)n12 | > 100 µM (inactive) | > 100 µM (inactive) |  |  | > 100 µM (inactive) | > 100 µM (inactive) |  | > 100 µM (inactive) |  |  |  | > 100 µM (inactive) | 92.3 µM (inactive) | > 100 µM (inactive) | > 100 µM (inactive) | > 100 µM (inactive) |  | > 100 µM (inactive) | > 100 µM (inactive) | > 100 µM (inactive)
7 | COc1ccccc1-c1cc(=O)c2ccccc2[nH]1 | > 100 µM (inactive) | > 100 µM (inactive) |  |  | > 100 µM (inactive) |  |  | > 100 µM (inactive) |  |  |  | 70.1 µM (inactive) | 33.9 µM (inactive) | > 100 µM (inactive) | > 100 µM (inactive) |  | 55.1 µM (inactive) | 40.4 µM (inactive) | > 100 µM (inactive) | > 100 µM (inactive)
8 | Cc1ccc(C(O)c2cnc(C)n2Cc2ccccc2)cc1 (centres undefined) | > 100 µM (inactive) | > 100 µM (inactive) | > 100 µM (inactive) | > 100 µM (inactive) | > 100 µM (inactive) | > 100 µM (inactive) | > 100 µM (inactive) | > 100 µM (inactive) | > 100 µM (inactive) | > 100 µM (inactive) | > 100 µM (inactive) | > 100 µM (inactive) | > 100 µM (inactive) | > 100 µM (inactive) | > 100 µM (inactive) | 79.1 µM (inactive) | > 100 µM (inactive) | > 100 µM (inactive) | > 100 µM (inactive) | 
9 | COC(=O)C1(C)C=C(Nc2ccccc2)C(=O)N1c1ccccc1 (centres undefined) | > 100 µM (inactive) | > 100 µM (inactive) |  |  | > 100 µM (inactive) | 54.1 µM (inactive) |  | > 100 µM (inactive) |  |  |  | > 100 µM (inactive) | > 100 µM (inactive) | > 100 µM (inactive) | > 100 µM (inactive) | > 100 µM (inactive) |  | > 100 µM (inactive) | > 100 µM (inactive) | > 100 µM (inactive)
10 | O=C(CSC(=S)N1CCOCC1)Nc1nc2c(s1)CCCC2 | 90.2 µM (inactive) | > 100 µM (inactive) |  |  | > 100 µM (inactive) | 23.9 µM (inactive) |  | > 100 µM (inactive) |  |  |  | > 100 µM (inactive) | 27.8 µM (inactive) | > 100 µM (inactive) | > 100 µM (inactive) | 35.5 µM (inactive) | 34.2 µM (inactive) |  | > 100 µM (inactive) | 92.5 µM (inactive)
11 | C=CCC1(C)CCCCC1(O)C[S+]([O-])c1ccccc1 (centres undefined) | > 100 µM (inactive) | > 100 µM (inactive) |  |  | > 100 µM (inactive) | > 100 µM (inactive) |  | > 100 µM (inactive) |  |  |  | 20.9 µM (inactive) | > 100 µM (inactive) | > 100 µM (inactive) | > 100 µM (inactive) | > 100 µM (inactive) | > 100 µM (inactive) | > 100 µM (inactive) | > 100 µM (inactive) | > 100 µM (inactive)
12 | C=C[C@@H](C)[C@]1(C(=O)OC)CCCC12OCCO2 | 63.8 µM (inactive) | > 100 µM (inactive) |  |  | > 100 µM (inactive) | > 100 µM (inactive) |  | > 100 µM (inactive) |  |  |  | > 100 µM (inactive) | 82.2 µM (inactive) | > 100 µM (inactive) | > 100 µM (inactive) | > 100 µM (inactive) | 68.5 µM (inactive) |  | > 100 µM (inactive) | > 100 µM (inactive)
13 | N#CCCN(CCC#N)c1ccc(/C=N\c2nc(-c3ccccc3)cs2)cc1 | > 100 µM (inactive) | > 100 µM (inactive) |  |  | 84.3 µM (inactive) | 50.8 µM (inactive) |  | > 100 µM (inactive) |  |  |  | > 100 µM (inactive) | 49.3 µM (inactive) | > 100 µM (inactive) | > 100 µM (inactive) | > 100 µM (inactive) |  | > 100 µM (inactive) | 81.7 µM (inactive) | > 100 µM (inactive)
14 | O=C1C[C@@H]2C(COC(=O)c3ccccc3)N(OCc3ccccc3)C[C@@H]2O1 (some centres undefined) | > 100 µM (inactive) | > 100 µM (inactive) |  |  | > 100 µM (inactive) |  |  | > 100 µM (inactive) |  |  |  | > 100 µM (inactive) | > 100 µM (inactive) | > 100 µM (inactive) | > 100 µM (inactive) | > 100 µM (inactive) | > 100 µM (inactive) | > 100 µM (inactive) | > 100 µM (inactive) | > 100 µM (inactive)
15 | CCCCCCCCCCCCC(SCCNC(=O)CCNC(=O)C(O)C(C)(C)COP(=O)(O)OP(=O)(O)OCC1OC(n2cnc3c(N)ncnc32)C(O)C1OP(=O)(O)O)C(=O)NCC(N)=O (centres undefined) | > 100 µM (inactive) | 56.6 µM (inactive) |  |  | > 100 µM (inactive) | 38.3 µM (inactive) |  | > 100 µM (inactive) |  |  |  | 79.6 µM (inactive) | 69.2 µM (inactive) | > 100 µM (inactive) | > 100 µM (inactive) | > 100 µM (inactive) |  | > 100 µM (inactive) | > 100 µM (inactive) | > 100 µM (inactive)
16 | BC(=O)NC(CC(C)C)C(=O)NCC(=O)NC1c2ccsc2C(=O)C1O.CN(C)C (centres undefined) | > 100 µM (inactive) | > 100 µM (inactive) | > 100 µM (inactive) | > 100 µM (inactive) | > 100 µM (inactive) | > 100 µM (inactive) | > 100 µM (inactive) | > 100 µM (inactive) | > 100 µM (inactive) | > 100 µM (inactive) | > 100 µM (inactive) | 95.5 µM (inactive) | > 100 µM (inactive) | > 100 µM (inactive) | > 100 µM (inactive) | > 100 µM (inactive) | > 100 µM (inactive) | > 100 µM (inactive) | > 100 µM (inactive) | 
17 | O=[N+]([O-])c1cccc(Nc2nc(Cl)nc(Cl)n2)c1 | > 100 µM (inactive) | > 100 µM (inactive) |  |  | > 100 µM (inactive) |  |  | > 100 µM (inactive) |  |  |  | > 100 µM (inactive) | > 100 µM (inactive) | > 100 µM (inactive) | > 100 µM (inactive) | > 100 µM (inactive) | > 100 µM (inactive) | > 100 µM (inactive) |  | > 100 µM (inactive)
18 | O=C(NC1CCCCC1)NS(=O)(=O)c1ccc2c(c1)CCC2 [GLYHEXAMIDE] | > 100 µM (inactive) | > 100 µM (inactive) |  |  |  | > 100 µM (inactive) |  | > 100 µM (inactive) |  |  |  | > 100 µM (inactive) | > 100 µM (inactive) | > 100 µM (inactive) | > 100 µM (inactive) |  | > 100 µM (inactive) | > 100 µM (inactive) | > 100 µM (inactive) | > 100 µM (inactive)
19 | Oc1ccc2c(c1)CC[N+]1=C2CCC2CCCC21 (centres undefined) [QUINDONIUM BROMIDE] | > 100 µM (inactive) | > 100 µM (inactive) |  |  |  | > 100 µM (inactive) |  | > 100 µM (inactive) |  |  |  | > 100 µM (inactive) |  | > 100 µM (inactive) | > 100 µM (inactive) | > 100 µM (inactive) |  | > 100 µM (inactive) | > 100 µM (inactive) | > 100 µM (inactive)
